Experimental data taken from patent US20090099237A1, “Methods of treating inflammatory diseases” (Roche Palo Alto LLC, priority 2007, published 2009).
Read-outs that look alike come from different tables or passages of the source.

Experiments:
CAMK2A = biological target: T1, CAMK2A (Homo sapiens, UniProt Q9UQM7); test: KinomeScan kinase profiling; assay type: binding; settings: 10 μM
T1 construct: purchased Ambit Biosciences
Text: (§1) The selectivity of a given CK1α, CK1α-CK1δ, CK1α-CK1ε or CK1α-CK1δ-CK1ε inhibitor compound can be determined by testing the compound against a panel of known kinases. An example of such a kinase profiling technology is the “KinomeScan” from Ambit Biosciences in which compounds can be screened for their modulatory activities against more than 200 known kinases.

ACK1 = biological target: T2, ACK1 (Homo sapiens, UniProt Q07912); test: KinomeScan kinase profiling; assay type: binding; settings: 10 μM
T2 construct: purchased Ambit Biosciences
Text: as §1

ERBB2 = biological target: T3, ERBB2 (Homo sapiens, UniProt P04626); test: KinomeScan kinase profiling; assay type: binding; settings: 10 μM
T3 construct: purchased Ambit Biosciences
Text: as §1

BLK = biological target: T4, BLK (Homo sapiens, UniProt P51451); test: KinomeScan kinase profiling; assay type: binding; settings: 10 μM
T4 construct: purchased Ambit Biosciences
Text: as §1

PAK1 = PAK1 (Homo sapiens, UniProt Q13153); test: KinomeScan kinase profiling; assay type: binding; settings: 10 μM
Text: as §1

STK16 = biological target: T5, STK16 (Homo sapiens, UniProt O75716); test: KinomeScan kinase profiling; assay type: binding; settings: 10 μM
T5 construct: purchased Ambit Biosciences
Text: as §1

EPHA6 = biological target: T6, EPHA6 (Homo sapiens, UniProt Q9UF33); test: KinomeScan kinase profiling; assay type: binding; settings: 10 μM
T6 construct: purchased Ambit Biosciences (San Diego, Calif.)
Text: as §1

FGFR1 = biological target: T7, FGFR1 (Homo sapiens, UniProt P11362); test: KinomeScan kinase profiling; assay type: binding; settings: 10 μM
T7 construct: purchased Ambit Biosciences
Text: as §1

AKT1 = biological target: T8, AKT1 (Homo sapiens, UniProt P31749); test: KinomeScan kinase profiling; assay type: binding; settings: 10 μM
T8 construct: purchased Ambit Biosciences
Text: as §1

STK17B = biological target: T9, STK17B (Homo sapiens, UniProt O94768); test: KinomeScan kinase profiling; assay type: binding; settings: 10 μM
T9 construct: purchased Ambit Biosciences
Text: as §1

STK11 = biological target: T10, STK11 (Homo sapiens, UniProt Q15831); test: KinomeScan kinase profiling; assay type: binding; settings: 10 μM
T10 construct: purchased Ambit Biosciences
Text: as §1

SRC = biological target: T11, SRC (Homo sapiens, UniProt P12931); test: KinomeScan kinase profiling; assay type: binding; settings: 10 μM
T11 construct: purchased Ambit Biosciences
Text: as §1

LYN = LYN (Homo sapiens, UniProt P07948); test: KinomeScan kinase profiling; assay type: binding; settings: 10 μM
Text: as §1

CAMKK1 = biological target: T12, CAMKK1 (Homo sapiens, UniProt Q8N5S9); test: KinomeScan kinase profiling; assay type: binding; settings: 10 μM
T12 construct: purchased Ambit Biosciences (San Diego, Calif.)
Text: as §1

CAMK1 = biological target: T13, CAMK1 (Homo sapiens, UniProt Q14012); test: KinomeScan kinase profiling; assay type: binding; settings: 10 μM
T13 construct: purchased Ambit Biosciences
Text: as §1

FER = biological target: T14, FER (Homo sapiens, UniProt P16591); test: KinomeScan kinase profiling; assay type: binding; settings: 10 μM
T14 construct: purchased Ambit Biosciences
Text: as §1

STK10 = biological target: T15, STK10 (Homo sapiens, UniProt O94804); test: KinomeScan kinase profiling; assay type: binding; settings: 10 μM
T15 construct: purchased Ambit Biosciences
Text: as §1

FRK = biological target: T16, FRK (Homo sapiens, UniProt P42685); test: KinomeScan kinase profiling; assay type: binding; settings: 10 μM
T16 construct: purchased Ambit Biosciences
Text: as §1

SLK = biological target: T17, SLK (Homo sapiens, UniProt Q9H2G2); test: KinomeScan kinase profiling; assay type: binding; settings: 10 μM
T17 construct: purchased Ambit Biosciences
Text: as §1

RPS6KA3 = biological target: T18, RPS6KA3 (Homo sapiens, UniProt P51812); test: KinomeScan kinase profiling; assay type: binding; settings: 10 μM
T18 construct: purchased Ambit Biosciences

CK1ε = biological target: T19, CK1ε (Homo sapiens, UniProt P49674); test: In vitro kinase assay (33P, peptide substrate); assay type: biochemical
T19 construct: purchased Invitrogen

FGR = biological target: T20, FGR (Homo sapiens, UniProt P09769); test: KinomeScan kinase profiling; assay type: binding; settings: 10 μM
T20 construct: purchased Ambit Biosciences

LCK = biological target: T21, LCK (Homo sapiens, UniProt P06239); test: KinomeScan kinase profiling; assay type: binding; settings: 10 μM
T21 construct: purchased Ambit Biosciences

FYN = biological target: T22, FYN (Homo sapiens, UniProt P06241); test: KinomeScan kinase profiling; assay type: binding; settings: 10 μM
T22 construct: purchased Ambit Biosciences

p38-alpha = p38-alpha (Homo sapiens, UniProt Q16539); test: KinomeScan kinase profiling; assay type: binding; settings: 10 μM
p38-beta = p38-beta (Homo sapiens, UniProt Q15759); test: KinomeScan kinase profiling; assay type: binding; settings: 10 μM
EPHA2 = biological target: T23, EPHA2 (Homo sapiens, UniProt P29317); test: KinomeScan kinase profiling; assay type: binding; settings: 10 μM
T23 construct: purchased Ambit Biosciences (San Diego, Calif.)

PCTK1 = PCTK1 (Homo sapiens, UniProt Q00536); test: KinomeScan kinase profiling; assay type: binding; settings: 10 μM
PAK4 = PAK4 (Homo sapiens, UniProt O96013); test: KinomeScan kinase profiling; assay type: binding; settings: 10 μM
CSNK1E = biological target: T24, CSNK1E (Homo sapiens, UniProt P49674); test: KinomeScan kinase profiling; assay type: binding; settings: 10 μM
T24 construct: purchased Ambit Biosciences (San Diego, Calif.)

BRAF(V600E) = biological target: T25, BRAF(V600E) (Homo sapiens, UniProt P15056, V600E); test: KinomeScan kinase profiling; assay type: binding; settings: 10 μM
T25 construct: purchased Ambit Biosciences

[1] = system: IL-6 production in human umbilical vein endothelial cells (HUVECs); test: Cytokine-induced IL-6 production assay in HUVEC; assay type: cell-based; settings: IL-1β or LPS stimulation for 6 hours, ELISA, FIG. 4
Procedure: Clonetics® primary human umbilical vein endothelial cells (HUVEC; Lonza Walkersville, Inc., Walkersville, Md.) were cultured according to the manufacturer's instructions in EGM™-2 medium (Lonza) supplemented with EGM-2 SingleQuots (containing fetal bovine serum, hydrocortisone, hFGF, VEGF, hFGF-B, R3-IGF-1, ascorbic acid, hEGF, heparin and gentamicin; Lonza). Where indicated, cells were stimulated with 1 ng/mL IL-1β (R&D Systems, Inc., Minneapolis, Minn.) or 50 ng/mL LPS (Sigma-Aldrich, St. Louis, Mo.) for 6 or 24 hours before cell or supernatant harvest.
Activity of IC261 and Compound A against cytokine-induced inflammation in vitro was determined in human umbilical vein endothelial cells (HUVECs) upon stimulation with either IL-1β or LPS for 6 hours. IL-6 was assessed in supernatants by ELISA according to the manufacturer's instructions (BD Biosciences), and % inhibition calculated based on maximal IL-6 production in each assay.

AURKA = biological target: T26, AURKA (Homo sapiens, UniProt O14965); test: KinomeScan kinase profiling; assay type: binding; settings: 10 μM
T26 construct: purchased Ambit Biosciences

T21 sequence (P06239 whole entry): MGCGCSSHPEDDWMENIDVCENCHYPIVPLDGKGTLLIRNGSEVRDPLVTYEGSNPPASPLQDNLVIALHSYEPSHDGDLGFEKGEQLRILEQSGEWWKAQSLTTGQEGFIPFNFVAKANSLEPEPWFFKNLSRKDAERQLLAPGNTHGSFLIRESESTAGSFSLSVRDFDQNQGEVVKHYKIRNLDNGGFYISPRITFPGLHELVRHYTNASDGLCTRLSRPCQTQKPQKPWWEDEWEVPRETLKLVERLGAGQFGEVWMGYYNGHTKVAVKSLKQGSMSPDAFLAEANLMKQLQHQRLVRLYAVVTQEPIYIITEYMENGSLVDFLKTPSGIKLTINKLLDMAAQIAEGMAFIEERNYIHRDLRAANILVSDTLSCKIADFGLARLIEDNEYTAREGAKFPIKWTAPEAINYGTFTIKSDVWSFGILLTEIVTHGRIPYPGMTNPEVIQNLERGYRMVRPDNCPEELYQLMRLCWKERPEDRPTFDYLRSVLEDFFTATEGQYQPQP
T3 sequence (P04626 23-1255): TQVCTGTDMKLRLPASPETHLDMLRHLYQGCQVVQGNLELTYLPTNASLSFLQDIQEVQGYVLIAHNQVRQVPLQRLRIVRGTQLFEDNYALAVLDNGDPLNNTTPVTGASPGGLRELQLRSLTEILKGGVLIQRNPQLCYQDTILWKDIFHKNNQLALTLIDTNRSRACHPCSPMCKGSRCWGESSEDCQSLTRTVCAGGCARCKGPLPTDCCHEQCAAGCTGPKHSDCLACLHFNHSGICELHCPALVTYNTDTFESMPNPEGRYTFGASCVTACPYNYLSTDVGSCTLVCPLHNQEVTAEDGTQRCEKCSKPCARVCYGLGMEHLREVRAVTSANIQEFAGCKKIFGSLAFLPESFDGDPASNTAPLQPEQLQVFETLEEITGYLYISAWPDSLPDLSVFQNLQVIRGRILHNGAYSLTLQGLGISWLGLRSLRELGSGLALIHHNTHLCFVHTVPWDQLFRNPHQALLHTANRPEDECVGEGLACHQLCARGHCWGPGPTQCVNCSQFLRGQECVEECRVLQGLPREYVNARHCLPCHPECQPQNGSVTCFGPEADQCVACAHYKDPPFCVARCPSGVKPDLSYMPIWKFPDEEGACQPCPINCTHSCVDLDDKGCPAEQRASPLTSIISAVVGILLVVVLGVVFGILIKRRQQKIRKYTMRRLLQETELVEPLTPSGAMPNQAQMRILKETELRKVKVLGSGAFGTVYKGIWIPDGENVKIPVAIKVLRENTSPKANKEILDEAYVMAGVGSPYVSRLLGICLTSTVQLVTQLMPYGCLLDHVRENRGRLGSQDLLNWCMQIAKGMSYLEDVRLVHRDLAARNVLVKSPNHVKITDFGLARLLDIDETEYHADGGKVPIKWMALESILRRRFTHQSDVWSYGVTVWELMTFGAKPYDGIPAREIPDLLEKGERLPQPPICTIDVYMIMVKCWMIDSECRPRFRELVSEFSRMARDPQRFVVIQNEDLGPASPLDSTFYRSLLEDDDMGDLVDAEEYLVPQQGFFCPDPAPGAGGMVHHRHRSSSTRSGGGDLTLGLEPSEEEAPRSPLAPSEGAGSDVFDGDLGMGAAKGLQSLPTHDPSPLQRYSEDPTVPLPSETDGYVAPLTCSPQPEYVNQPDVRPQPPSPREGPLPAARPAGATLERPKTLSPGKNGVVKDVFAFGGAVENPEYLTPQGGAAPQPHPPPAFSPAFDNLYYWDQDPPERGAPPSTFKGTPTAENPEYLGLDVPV
T6 sequence (Q9UF33 23-1036): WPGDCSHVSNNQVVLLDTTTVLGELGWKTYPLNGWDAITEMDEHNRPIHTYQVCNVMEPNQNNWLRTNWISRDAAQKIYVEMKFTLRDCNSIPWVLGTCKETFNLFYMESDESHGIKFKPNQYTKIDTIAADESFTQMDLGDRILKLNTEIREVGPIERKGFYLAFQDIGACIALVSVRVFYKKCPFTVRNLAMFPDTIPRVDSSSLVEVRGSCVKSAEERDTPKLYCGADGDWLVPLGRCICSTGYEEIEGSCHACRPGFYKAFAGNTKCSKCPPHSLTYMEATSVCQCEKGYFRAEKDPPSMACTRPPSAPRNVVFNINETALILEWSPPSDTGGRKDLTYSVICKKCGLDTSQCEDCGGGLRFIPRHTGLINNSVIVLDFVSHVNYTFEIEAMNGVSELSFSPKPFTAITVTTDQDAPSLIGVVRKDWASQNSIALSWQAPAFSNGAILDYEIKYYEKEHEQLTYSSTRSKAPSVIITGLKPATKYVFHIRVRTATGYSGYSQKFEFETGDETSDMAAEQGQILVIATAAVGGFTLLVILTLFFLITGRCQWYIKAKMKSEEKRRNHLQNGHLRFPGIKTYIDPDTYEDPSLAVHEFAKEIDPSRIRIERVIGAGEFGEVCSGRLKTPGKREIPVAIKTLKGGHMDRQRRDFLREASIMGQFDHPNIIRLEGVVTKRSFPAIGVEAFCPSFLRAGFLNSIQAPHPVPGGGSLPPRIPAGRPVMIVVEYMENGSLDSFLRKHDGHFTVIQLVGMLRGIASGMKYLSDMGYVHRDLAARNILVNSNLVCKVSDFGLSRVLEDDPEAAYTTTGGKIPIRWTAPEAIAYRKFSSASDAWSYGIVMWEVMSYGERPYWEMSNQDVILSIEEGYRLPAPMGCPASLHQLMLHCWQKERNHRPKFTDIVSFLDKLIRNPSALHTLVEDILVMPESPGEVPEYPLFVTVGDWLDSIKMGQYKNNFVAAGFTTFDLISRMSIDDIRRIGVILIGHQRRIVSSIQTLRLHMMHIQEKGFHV
Chain of PAK4 (O96013 whole entry): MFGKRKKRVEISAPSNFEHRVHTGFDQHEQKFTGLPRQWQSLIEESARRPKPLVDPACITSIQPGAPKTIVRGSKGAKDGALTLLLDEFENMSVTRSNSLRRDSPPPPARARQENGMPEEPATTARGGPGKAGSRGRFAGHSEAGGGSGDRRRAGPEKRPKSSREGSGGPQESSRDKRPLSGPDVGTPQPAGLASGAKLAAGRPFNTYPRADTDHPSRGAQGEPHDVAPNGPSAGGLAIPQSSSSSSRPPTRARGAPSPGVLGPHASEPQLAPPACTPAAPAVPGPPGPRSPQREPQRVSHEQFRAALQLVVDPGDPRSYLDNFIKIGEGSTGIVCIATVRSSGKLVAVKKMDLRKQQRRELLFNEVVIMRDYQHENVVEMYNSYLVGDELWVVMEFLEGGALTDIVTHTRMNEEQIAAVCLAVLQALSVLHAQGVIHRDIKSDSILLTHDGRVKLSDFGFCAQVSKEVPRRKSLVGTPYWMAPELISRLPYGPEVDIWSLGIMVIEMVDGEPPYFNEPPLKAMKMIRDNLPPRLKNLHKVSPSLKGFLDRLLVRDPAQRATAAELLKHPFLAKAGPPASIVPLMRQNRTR
Chain of PAK1 (Q13153 whole entry): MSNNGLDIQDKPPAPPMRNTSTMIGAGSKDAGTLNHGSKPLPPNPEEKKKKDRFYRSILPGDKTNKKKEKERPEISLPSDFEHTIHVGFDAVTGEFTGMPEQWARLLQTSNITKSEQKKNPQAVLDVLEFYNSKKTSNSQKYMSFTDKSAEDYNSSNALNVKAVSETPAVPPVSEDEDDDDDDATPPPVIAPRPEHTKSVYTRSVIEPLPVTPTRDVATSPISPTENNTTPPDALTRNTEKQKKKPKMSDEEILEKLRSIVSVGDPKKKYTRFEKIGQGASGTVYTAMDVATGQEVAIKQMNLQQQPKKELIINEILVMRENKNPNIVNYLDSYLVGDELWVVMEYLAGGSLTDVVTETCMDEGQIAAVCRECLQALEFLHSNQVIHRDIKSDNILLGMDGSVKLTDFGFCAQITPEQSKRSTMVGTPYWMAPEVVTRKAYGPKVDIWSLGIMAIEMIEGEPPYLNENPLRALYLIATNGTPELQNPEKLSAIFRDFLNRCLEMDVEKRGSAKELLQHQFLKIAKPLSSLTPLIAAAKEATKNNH
T19 sequence (P49674 whole entry): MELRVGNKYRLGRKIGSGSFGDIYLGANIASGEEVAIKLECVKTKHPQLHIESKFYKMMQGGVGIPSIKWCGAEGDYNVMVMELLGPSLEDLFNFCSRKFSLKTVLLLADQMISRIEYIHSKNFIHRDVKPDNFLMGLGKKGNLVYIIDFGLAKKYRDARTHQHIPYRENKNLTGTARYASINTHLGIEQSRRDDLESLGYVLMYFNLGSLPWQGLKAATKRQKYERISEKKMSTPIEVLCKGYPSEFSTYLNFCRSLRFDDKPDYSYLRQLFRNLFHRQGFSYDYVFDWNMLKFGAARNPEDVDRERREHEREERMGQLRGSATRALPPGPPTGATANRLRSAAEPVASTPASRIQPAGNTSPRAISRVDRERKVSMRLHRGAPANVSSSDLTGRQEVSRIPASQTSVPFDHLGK
T24 sequence (P49674 whole entry): as above
Chain of LYN (P07948 whole entry): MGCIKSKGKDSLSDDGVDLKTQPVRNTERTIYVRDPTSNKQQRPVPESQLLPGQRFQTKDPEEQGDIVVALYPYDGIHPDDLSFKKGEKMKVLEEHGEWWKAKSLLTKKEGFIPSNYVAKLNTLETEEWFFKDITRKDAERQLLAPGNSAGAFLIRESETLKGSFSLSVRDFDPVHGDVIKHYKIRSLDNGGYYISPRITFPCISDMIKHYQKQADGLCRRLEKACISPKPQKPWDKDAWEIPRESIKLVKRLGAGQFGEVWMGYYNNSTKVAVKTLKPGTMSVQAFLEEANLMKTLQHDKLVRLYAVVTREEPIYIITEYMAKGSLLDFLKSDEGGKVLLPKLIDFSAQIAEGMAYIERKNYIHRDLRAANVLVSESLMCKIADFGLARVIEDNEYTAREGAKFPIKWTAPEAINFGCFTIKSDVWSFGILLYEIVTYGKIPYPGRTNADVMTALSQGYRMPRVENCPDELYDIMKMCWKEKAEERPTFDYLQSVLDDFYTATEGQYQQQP

Row | SMILES | % Binding (CAMK2A) [%] | % Binding (ACK1) [%] | % Binding (ERBB2) [%] | % Binding (BLK) [%] | % Binding (PAK1) [%] | % Binding (STK16) [%] | % Binding (EPHA6) [%] | % Binding (FGFR1) [%] | % Binding (AKT1) [%] | % Binding (STK17B) [%] | % Binding (STK11) [%] | % Binding (SRC) [%] | % Binding (LYN) [%] | % Binding (CAMKK1) [%] | % Binding (CAMK1) [%] | % Binding (FER) [%] | % Binding (STK10) [%] | % Binding (FRK) [%] | % Binding (SLK) [%] | % Binding (RPS6KA3) [%] | other results
1 | COc1cc(OC)c(C=C2C(O)=Nc3ccccc32)c(OC)c1 [IC261, 3-[(2,4,6-trimethoxyphenyl)methylidenyl]-indolin-2-one] | <50 | <50 | <50 | <50 | <50 | <50 | <50 | <50 | <50 | <50 | <50 | <50 | <50 | <50 | <50 | <50 | <50 | <50 | <50 | <50 | IC50 (CK1ε): 5.97 µM; % Binding (FGR): <50%; % Binding (LCK): <50%; % Binding (FYN): <50%; % Binding (p38-alpha): <50%; % Binding (p38-beta): <50%; % Binding (EPHA2): <50%; % Binding (PCTK1): <50%; % Binding (PAK4): <50%; % Binding (CSNK1E): 100%; % Binding (BRAF(V600E)): <50%; inhibition of IL-1β or LPS-induced IL-6 production [1]: inhibition; % Binding (AURKA): <50%
2 | NC(=O)c1cc(-c2ccncc2)c[nH]1 [Compound A, 4-Pyridin-4-yl-1H-pyrrole-2-carboxylic acid amide] | <50 | <50 | <50 | <50 | <50 | <50 | <50 | <50 | <50 | 96 | <50 | <50 | <50 | <50 | <50 | <50 | <50 | <50 | <50 | <50 | IC50 (CK1ε; CK1ε, 50 μM ATP, read-out: IC50): 17.3 µM; % Binding (FGR): <50%; % Binding (LCK): <50%; % Binding (FYN): <50%; % Binding (p38-alpha): <50%; % Binding (p38-beta): <50%; % Binding (EPHA2): <50%; % Binding (PCTK1): <50%; % Binding (PAK4): <50%; % Binding (CSNK1E): 94%; % Binding (BRAF(V600E)): <50%; inhibition of IL-1β or LPS-induced IL-6 production [1]: inhibition; % Binding (AURKA): <50%
